Source: patent US20230141718A1, “METHODS OF TREATING GLIOBLASTOMA” (CELGENE QUANTICEL RESEARCH, INC., priority 2021, published 2023)

Columns and labels:
[1] = cited from earlier work
glioblastoma = details: in vivo; cited from earlier work
[2] = Safety (TRAEs/TEAEs), CC-90010-GBM-002 Parts A and B; assay type: in vivo
Source text: This was then followed by a break in treatment therapy, e.g., from 1 to up to 4 weeks. […] Adjuvant therapy cycles were repeated from 2 to 6 times. After adjuvant therapy, was a monotherapy treatment.
The demographics and characteristics of treated patients are described in the below table.

SMILES: C#Cc1cccc(Nc2ncnc3cc(OCCOC)c(OCCOC)cc23)c1 [erlotinib]
- tissue:plasma ratio ([1]; brain tumor tissue): 0.06-0.08

SMILES: COc1cc2ncnc(Nc3ccc(F)c(Cl)c3)c2cc1OCCCN1CCOCC1 [gefitinib]
- median concentration in tumor tissue ([1]; glioblastoma tumor tissue): 4100 ng/g
- median concentration in plasma ([1]; in vivo): 181 ng/mL
- antitumor activity in glioblastoma (glioblastoma): neither lapatinib nor gefitinib have shown evidence of antitumor activity

SMILES: O=C(c1cc(Cc2n[nH]c(=O)c3ccccc23)ccc1F)N1CCN(C(=O)C2CC2)CC1 [olaparib]
- tissue:plasma ratio, mean ([1]; brain tumor tissue): 0.25

SMILES: Cn1nnc2c(C(N)=O)ncn2c1=O [TMZ, 3,4-dihydro-3-methyl-4-oxoimidazo[5,1-d]-as-tetrazine-8-carboxamide, reference compound]
- patients with TRAEs related to TMZ ([2]; Part B arm A): 75%
- patients with nausea related to TMZ ([2]; Part B arm A): 46%
- patients with thrombocytopenia related to TMZ ([2]; Part B arm A): 46%
- patients with TRAEs related to TMZ ([2]; Part B arm B): 73%
- patients with thrombocytopenia related to TMZ ([2]; Part B arm B): 40%

SMILES: CS(=O)(=O)CCNCc1ccc(-c2ccc3ncnc(Nc4ccc(OCc5cccc(F)c5)c(Cl)c4)c3c2)o1 [lapatinib]
- tissue:plasma ratio, mean ([1]; brain tumor tissue): 13.0
- antitumor activity in glioblastoma (glioblastoma): neither lapatinib nor gefitinib have shown evidence of antitumor activity
